Test results from patent publication US20250049926A1, “PHARMACEUTICAL COMPOSITIONS COMPRISING MODIFIED BETACYCLODEXTRINS” (priority 2021, published 2025).

Experiments:
[1] = Solubility measurement of saturated solutions by HPLC at room temperature (0 h and 24 h); format: physicochemical; conditions: for solubility at 24 h / solubility at 0 h: thermodynamic from solid
Description: The vial contents are prepared starting with 2.5 mg of the compound of formula (I). The primary excipient is added followed by any further excipient and then the buffered water to a total volume of 500 μL. All components are mixed in a vortex mixer for ca. 5 minutes. If everything is dissolved an additional 2.5 mg of the compound of formula (I) is added and vortexed again for ca. 5 minutes. This is repeated until a saturated solution (suspension) is obtained.
The solubility in vial 1 is measured immediately as described below.
To measure solubility 400 μl of the suspension are taken and placed in a centrifugation device above a 0.2 μm filter. Centrifugation is performed at 14,000 rpm for 10 minutes and if necessary repeated for additional 10 minutes. The filter is removed from the vial and 100 μL is taken and diluted with 400 μL high-performance liquid chromatography (HPLC) diluent solution (see below) or diluted with 900 μL HPLC diluent solution in the event 5 mg or more of the compound of formula (I) was used. The pH of the solution is measured. A further 100 μL of the vial solution is taken and diluted with 400 μL of HPLC diluent solution or diluted with 900 μL HPLC diluent solution in the event 5 mg or more of the compound of formula (I) was used. The assay of the solution versus control stock solution is measured by HPLC and the solubility is calculated as described below. The HPLC diluent solution is 0.1% trifluoroacetic acid (TFA) in acetonitrile (ACN) and water (1:1 v/v).
All solubility tests are performed at room temperature.
The HPLC method for assessing solubility is performed as follows:
The solubility of the compound of formula (I) is calculated according to the following formula:
[formula] • Solubility=solubility of compound of formula (I) (mg/mL) • A=peak area of the compound of the sample tested • a=value of constant “a” in Linear regression equation y=ax+b • b=value of constant “b” in Linear regression equation y=ax+b • n=dilution time • Formulations for stability assessment are prepared as follows: […]

mouse tumor models = assay: Single agent administration in mouse tumor models; format: in vivo
Description: However the compound of formula (I) has low aqueous solubility, leading to the possibility of limited exposure in humans.

[2] = Solubility in water as a function of pH; format: physicochemical; conditions: aqueous buffer, pH≥4.5 (practically insoluble)
Description: The compound of formula (I) as a free base compound has a quite strong lipophilic behavior (Log P 4.13). […] Taking into account these characteristics, and based on pH requirements for intravenous (IV) solutions which is generally set ≥4.0, solubility studies were carried out to identify solubilizers able to substantially increase the aqueous solubility of the compound of formula (I).

[3] = buffered water with excipients, pH 7, aqueous with cosolvent or surfactant or cyclodextrin, CBS 30 mM pH 7.0, NaCl 3 mg/mL, SBE-beta-CD 40 mg/mL, pH exp 7.0

Compound: COc1cc(N2CCNCC2)ccc1Nc1ncc2c(n1)-n1ccc(C(=O)Nc3c(C)cccc3C)c1CC2 [compound of formula (I)]
- solubility at 24 h ([1]; buffered water with excipients, pH 4, aqueous with cosolvent or surfactant or cyclodextrin, CBS 30 mM pH 4.0, NaCl 6 mg/mL, SBE-beta-CD 40 mg/mL + Propylene glycol 10 mg/mL, pH exp 4.2): 3650 µg/mL
- solubility at 0 h ([1]; buffered water with excipients, pH 4, aqueous with cosolvent or surfactant or cyclodextrin, CBS 30 mM pH 4.0, NaCl 6 mg/mL, SBE-beta-CD 40 mg/mL + Propylene glycol 20 mg/mL, pH exp 4.1): 2310 µg/mL
- solubility at 24 h ([1]; buffered water with excipients, pH 4, aqueous with cosolvent or surfactant or cyclodextrin, CBS 30 mM pH 4.0, NaCl 6 mg/mL, SBE-beta-CD 40 mg/mL + Propylene glycol 20 mg/mL, pH exp 4.2): 3440 µg/mL
- solubility at 0 h ([1]; buffered water with excipients, pH 4, aqueous with cosolvent or surfactant or cyclodextrin, CBS 30 mM pH 4.0, NaCl 6 mg/mL, SBE-beta-CD 40 mg/mL + Propylene glycol 30 mg/mL, pH exp 4.1): 2150 µg/mL
- solubility at 24 h ([1]; buffered water with excipients, pH 4, aqueous with cosolvent or surfactant or cyclodextrin, CBS 30 mM pH 4.0, NaCl 6 mg/mL, SBE-beta-CD 40 mg/mL + Propylene glycol 30 mg/mL, pH exp 4.2): 3350 µg/mL
- solubility at 0 h ([1]; buffered water with excipients, pH 4, aqueous with cosolvent or surfactant or cyclodextrin, CBS 30 mM pH 4.0, SBE-beta-CD 54 mg/mL + Ethanol 16 mg/mL, pH exp 4.1): 2490 µg/mL
- solubility at 24 h ([1]; buffered water with excipients, pH 4, aqueous with cosolvent or surfactant or cyclodextrin, CBS 30 mM pH 4.0, SBE-beta-CD 54 mg/mL + Ethanol 16 mg/mL, pH exp 4.3): 3850 µg/mL
- solubility at 0 h ([1]; buffered water with excipients, pH 4, aqueous with cosolvent or surfactant or cyclodextrin, CBS 30 mM pH 4.0, SBE-beta-CD 54 mg/mL + PEG 300 56 mg/mL, pH exp 4.2): 2890 µg/mL
- solubility at 24 h ([1]; buffered water with excipients, pH 4, aqueous with cosolvent or surfactant or cyclodextrin, CBS 30 mM pH 4.0, SBE-beta-CD 54 mg/mL + PEG 300 56 mg/mL, pH exp 4.3): 4030 µg/mL
- solubility at 0 h ([1]; buffered water with excipients, pH 4, aqueous with cosolvent or surfactant or cyclodextrin, CBS 30 mM pH 4.0, SBE-beta-CD 56 mg/mL + PEG 400 22 mg/mL, pH exp 4.2): 2810 µg/mL
- solubility at 24 h ([1]; buffered water with excipients, pH 4, aqueous with cosolvent or surfactant or cyclodextrin, CBS 30 mM pH 4.0, SBE-beta-CD 56 mg/mL + PEG 400 22 mg/mL, pH exp 4.3): 4060 µg/mL
- solubility at 0 h ([1]; buffered water with excipients, pH 4, aqueous with cosolvent or surfactant or cyclodextrin, GBS (gluconate) 30 mM pH 4.0, NaCl 3 mg/mL, SBE-beta-CD 40 mg/mL, pH exp 4.1): 2590 µg/mL
- solubility at 24 h ([1]; buffered water with excipients, pH 4, aqueous with cosolvent or surfactant or cyclodextrin, GBS (gluconate) 30 mM pH 4.0, NaCl 3 mg/mL, SBE-beta-CD 40 mg/mL, pH exp 4.5): 3940 µg/mL
- solubility at 0 h ([1]; buffered water with excipients, pH 4, aqueous with cosolvent or surfactant or cyclodextrin, LBS (lactate) 30 mM pH 4.0, NaCl 3 mg/mL, SBE-beta-CD 40 mg/mL, pH exp 4.1): 2690 µg/mL
- solubility at 24 h ([1]; buffered water with excipients, pH 4, aqueous with cosolvent or surfactant or cyclodextrin, LBS (lactate) 30 mM pH 4.0, NaCl 3 mg/mL, SBE-beta-CD 40 mg/mL, pH exp 4.3): 3980 µg/mL
- solubility at 24 h ([1]; buffered water with excipients, pH 5.5, aqueous with cosolvent or surfactant or cyclodextrin, CBS 30 mM pH 5.5, NaCl 3 mg/mL, SBE-beta-CD 40 mg/mL, pH exp 5.7): 3100 µg/mL
- solubility at 0 h [1, 3]: 2230 µg/mL
- solubility at 24 h [1, 3]: 2230 µg/mL
- solubility at 0 h ([1]; buffered water without excipient (saturated solution), pH 4, aqueous buffer, CBS 30 mM pH 4.0, no excipient, pH exp 4.0): 160 µg/mL
- solubility at 24 h ([1]; buffered water without excipient (saturated solution), pH 4, aqueous buffer, CBS 30 mM pH 4.0, no excipient, pH exp 4.2): 120 µg/mL
- effect of buffer on solubility with SBE-beta-CD ([1]; citrate acid, acetic acid, gluconic acid, lactic acid and aspartic acid buffer): approximately the same
- solubility (in words) ([1]; other solubilizers at concentrations suitable for intravenous use, including hydroxypropyl beta-cyclodextrin): Low solubility
- effect of additional excipient on solubility with SBE-beta-CD ([1]; saline): very small impact on solubility
- solubility (in words) ([1]; with SBE-beta-CD at concentrations of solubilizer suitable for intravenous use): High solubility
- solubility (in words) ([1]; with SBE-beta-CD, at higher pH): lower solubility
- solubility (in words) ([1]; with SBE-beta-CD, between pH 4 to pH 5.5): High solubility
- tumor response (mouse tumor models): regressions (and cures)
- solubility [2]: ≤ 20 µg/mL
